# Literature values, collected in US20140080710A1, “COMPOSITIONS WITH HOT MELT RESIN MATRIX” (AgroFresh Inc., priority 2012, published 2014).
# Test system: ethylene receptor
# Details: compared with ethylene
compound,measurement,value
"CC1=CC1 [Sample 1-MCP, 1-methylcyclopropene]",affinity for the receptor relative to that of ethylene,approximately 10 times
